Source: patent US20240132475A1, “SUBSTITUTED PYRAZOLYL COMPOUNDS AS MALT-1 INHIBITORS” (AURIGENE ONCOLOGY LIMITED, priority 2021, published 2024)
pIC50: −log10 of the molar value.

Target: T1, MALT-1 (Isoform 1) (Homo sapiens, UniProt Q9UDY8)
T1 construct: using recombinant MALT-1 (Isoform 1, aa-840) generated in house; made in house
T1 sequence (Q9UDY8 1-824): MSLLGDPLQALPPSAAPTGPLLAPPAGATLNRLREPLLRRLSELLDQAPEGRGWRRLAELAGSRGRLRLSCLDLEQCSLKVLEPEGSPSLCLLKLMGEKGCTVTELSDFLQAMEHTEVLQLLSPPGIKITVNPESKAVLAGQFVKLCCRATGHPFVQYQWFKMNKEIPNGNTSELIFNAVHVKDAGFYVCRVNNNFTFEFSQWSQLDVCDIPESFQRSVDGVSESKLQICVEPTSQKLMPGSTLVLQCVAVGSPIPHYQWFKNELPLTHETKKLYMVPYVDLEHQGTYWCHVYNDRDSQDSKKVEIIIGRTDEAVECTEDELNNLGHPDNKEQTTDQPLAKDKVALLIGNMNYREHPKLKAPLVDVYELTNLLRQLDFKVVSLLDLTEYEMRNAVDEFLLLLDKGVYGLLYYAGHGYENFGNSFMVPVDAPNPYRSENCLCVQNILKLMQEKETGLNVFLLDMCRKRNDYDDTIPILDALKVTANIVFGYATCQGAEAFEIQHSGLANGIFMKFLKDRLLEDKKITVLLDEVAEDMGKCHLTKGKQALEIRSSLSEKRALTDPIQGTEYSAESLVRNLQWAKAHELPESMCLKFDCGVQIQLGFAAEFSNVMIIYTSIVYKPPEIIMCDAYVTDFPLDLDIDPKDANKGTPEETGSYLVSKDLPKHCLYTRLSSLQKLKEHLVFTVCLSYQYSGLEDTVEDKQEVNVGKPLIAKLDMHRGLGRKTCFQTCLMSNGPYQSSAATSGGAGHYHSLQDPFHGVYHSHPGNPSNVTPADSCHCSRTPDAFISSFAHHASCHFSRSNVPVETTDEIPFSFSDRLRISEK
Experiment: MALT-1 (Isoform 1) enzyme fluorescent biochemical assay
Settings: for pIC50: dose-response, sigmoidal curve fit, reported as groups A, B, C; for inhibition at 1 µM: test compound 1 μM, read-out: Percent Inhibition (1 μM)
Experimental: The potency of compounds to inhibit MALT-1 (Isoform 1) enzyme was tested in a Fluorescent assay using recombinant MALT-1 (Isoform 1, aa-840) generated in house. The assay buffer was 50 mM HEPES (pH 7.5), 100 mM NaCl, 10 mM DTT, 1 mM EDTA, 0.9 M sodium citrate, 0.01% CHAPS. 1.5 nM of MALT-1 enzyme was incubated with test compounds ([…]) (1% DMSO) in the presence of buffer for 30 minutes at 30° C. The protease reaction was initiated by adding […] of AC-LRSR-MAC (Peptide International, USA) substrate and incubated for 240 min. After 240 min incubation, fluorescence emission of the samples at 460 nm was measured at an excitation of 355 nm. The percent inhibition was calculated using the following formula: […]. IC50 values were determined by fitting the dose-response data to sigmoidal curve fitting equation using Graph pad prism software V8.
ND represents Not Determined.

pIC50 | inhibition at 1 µM (recombinant MALT-1 1.5 nM) | inhibition at 10 µM (test compound 10 μM (stated in the cell), recombinant MALT-1 1.5 nM, read-out: Percent Inhibition (10 μM)) | SMILES
< 6.00 | 14% |  | O=C(Nc1cncnc1)c1cnn(Cc2cccc(F)c2Cl)c1C(F)(F)F [Compound 41, 1-(2-chloro-3-fluorobenzyl)-N-(pyrimidin-5-y1)-5-(trifluoromethyl)-1H-pyrazole-4-carboxamide]
6.00 to 6.60 | 71% |  | O=C(Nc1cncc(C(F)(F)F)c1)c1cnn(Cc2cccc(F)c2Cl)c1C(F)(F)F [Compound 42, 1-(2-chloro-3-fluorobenzyl)-5-(trifluoromethyl)-N-(5-(trifluoromethyl)pyridin-3-yl)-1H-pyrazole-4-carboxamide]
< 6.00 | 13% |  | O=C(Nc1cc(C(F)(F)F)cnn1)c1cnn(Cc2cccc(F)c2Cl)c1C(F)(F)F [Compound 43, 1-(2-chloro-3-fluorobenzyl)-5-(trifluoromethyl)-N-(5-(trifluoromethyl)pyridazin-3-y1)-1H-pyrazole-4-carboxamide]
< 6.00 | 38% |  | O=C(Nc1cc(C(F)(F)F)ncn1)c1cnn(Cc2cccc(F)c2Cl)c1C(F)(F)F [Compound 44, 1-(2-chloro-3-fluorobenzyl)-5-(trifluoromethyl)-N-(6-(trifluoromethyl)pyrimidin-4-yl)-1H-pyrazole-4-carboxamide]
< 6.00 | 40% |  | O=C(Nc1cnc(C(=O)N2CCCC2)c(Cl)c1)c1cnn(Cc2cccc(F)c2Cl)c1C(F)(F)F [Compound 45, 1-(2-chloro-3-fluorobenzyl)-N-(5-chloro-6-(pyrrolidine-1-carbonyl)pyridin-3-yl)-5-(trifluoromethyl)-1H-pyrazole-4-carboxamide]
< 6.00 | 32% |  | O=C(Nc1cc(C(F)(F)F)ccn1)c1cnn(Cc2cccc(F)c2Cl)c1C(F)(F)F [Compound 46, 1-(2-chloro-3-fluorobenzyl)-5-(trifluoromethyl)-N-(4-(trifluoromethyl)pyridin-2-yl)-1H-pyrazole-4-carboxamide]
 |  | 33% | O=C(Nc1ccnc(C(O)C(F)(F)F)c1)c1cnn(Cc2cccc(F)c2Cl)c1C(F)(F)F (stereo not shown) [Compound 47, 1-(2-chloro-3-fluorobenzyl)-N-(2-(2,2,2-trifluoro-1-hydroxyethyl)pyridin-4-y1)-5-(trifluoromethyl)-1H-pyrazole-4-carboxamide]
< 6.00 | 23% |  | CC(C)C(c1cccc(F)c1)n1ncc(C(=O)Nc2cnc(-n3nccn3)c(C#N)c2)c1C(F)(F)F (stereo not shown) [Compound 48, N-(5-cyano-6-(2H-1,2,3-triazol-2-yl)pyridin-3-yl)-1-(1-(3-fluorophenyl)-2-methylpropyl)-5-(trifluoromethyl)-1H-pyrazole-4-carboxamide]
6.00 to 6.60 | 88% |  | CC(c1cccc(Cl)c1)n1ncc(C(=O)Nc2cnc(-n3nccn3)c(Cl)c2)c1C(F)(F)F (stereo not shown) [Compound 49, N-(5-chloro-6-(2H-1,2,3-triazol-2-yl)pyridin-3-yl)-1-(1-(3-chlorophenyl)ethyl)-5-(trifluoromethyl)-1H-pyrazole-4-carboxamide]
> 6.60 | 65% |  | CC(c1cccc(C#N)c1)n1ncc(C(=O)Nc2cnc(-n3nccn3)c(C#N)c2)c1C(F)(F)F (stereo not shown) [Compound 50, N-(5-cyano-6-(2H-1,2,3-triazol-2-yl)pyridin-3-yl)-1-(1-(3-cyanophenyl)ethyl)-5-(trifluoromethyl)-1H-pyrazole-4-carboxamide]
> 6.60 | 100% |  | CC(c1cccc(Cl)c1)n1ncc(C(=O)Nc2cnc(-n3nccn3)c(C#N)c2)c1C(F)(F)F (stereo not shown) [Compound 51, 1-(1-(3-chlorophenyl)ethyl)-N-(5-cyano-6-(2H-1,2,3-triazol-2-y1)pyridin-3-y1)-5-(trifluoromethyl)-1H-pyrazole-4-carboxamide]
> 6.60 | 100% |  | Cc1c(F)cccc1C(C)n1ncc(C(=O)Nc2cnc(-n3nccn3)c(C#N)c2)c1C(F)(F)F (stereo not shown) [Compound 52, N-(5-cyano-6-(2H-1,2,3-triazol-2-yl)pyridin-3-yl)-1-(1-(3-fluoro-2-methylphenyl)ethyl)-5-(trifluoromethyl)-1H-pyrazole-4-carboxamide]
6.00 to 6.60 | 60% |  | O=C(Nc1cnnc(C(F)(F)F)c1)c1cnn(Cc2cccc(F)c2Cl)c1C(F)(F)F [Compound 53, 1-(2-chloro-3-fluorobenzyl)-5-(trifluoromethyl)-N-(6-(trifluoromethyl)pyridazin-4-yl)-1H-pyrazole-4-carboxamide]
6.00 to 6.60 | 77% |  | N#Cc1cc(NC(=O)c2cnn(Cc3cccc(F)c3Cl)c2C(F)(F)F)cnc1-c1ccoc1 [Compound 54, 1-(2-chloro-3-fluorobenzyl)-N-(5-cyano-6-(furan-3-yl)pyridin-3-y1)-5-(trifluoromethyl)-1H-pyrazole-4-carboxamide]
6.00 to 6.60 | 63% |  | N#Cc1cc(NC(=O)c2cnn(Cc3cccc(F)c3Cl)c2C(F)(F)F)cnc1-c1ccsc1 [Compound 55, 1-(2-chloro-3-fluorobenzyl)-N-(5-cyano-6-(thiophen-3-y1)pyridin-3-y1)-5-(trifluoromethyl)-1H-pyrazole-4-carboxamide]
6.00 to 6.60 | 77% |  | N#Cc1cc(NC(=O)c2cnn(Cc3cccc(F)c3C(F)F)c2C(F)(F)F)cnc1-n1nccn1 [Compound 56, N-(5-cyano-6-(2H-1,2,3-triazol-2-yl)pyridin-3-y1)-1-(2-(difluoromethyl)-3-fluorobenzyl)-5-(trifluoromethyl)-1H-pyrazole-4-carboxamide]
